Reference: PubChem BioAssay AID1963838 (Molecular Pharmacology Branch, DTP, NCI, 2024)

System: 855422-203-R-J1-PDC complex spheroid viability
Assay: Anticancer human tumor 855422-203-R-J1-PDC patient-derived bladder carcinoma cell line growth inhibition [POLQ]
Conditions: for IC50: curve of first compound; for viability, T/C: stronger effect = lower value
In short: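 Patient-derived tumour cells were co-cultured with HUVEC and mesenchymal stem cells as multicellular spheroids at 37 °C. They were treated with POLQ inhibitors (novobiocin, ART-558, RP6685) alone or combined with other agents. Top concentrations were at or near clinical Cmax (otherwise 10 microM; SN-38 at 1 microM), decreasing in half-log steps.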

[1] = second compound 0.0316 µM, first compound 0.0316 µM
[2] = second compound 0.0316 µM, first compound 0.1 µM
[3] = second compound 0.0316 µM, first compound 0.316 µM
[4] = second compound 0.0316 µM, first compound 1 µM
[5] = second compound 0.0316 µM, first compound 3.16 µM
[6] = second compound 0.0316 µM, first compound 10 µM
[7] = second compound 0.1 µM, first compound 0.0316 µM
[8] = second compound 0.1 µM, first compound 0.1 µM
[9] = second compound 0.1 µM, first compound 0.316 µM
[10] = second compound 0.1 µM, first compound 1 µM
[11] = second compound 0.1 µM, first compound 3.16 µM
[12] = second compound 0.1 µM, first compound 10 µM
[13] = second compound 0.316 µM, first compound 0.0316 µM
[14] = second compound 0.316 µM, first compound 0.1 µM
[15] = second compound 0.316 µM, first compound 0.316 µM
[16] = second compound 0.316 µM, first compound 1 µM
[17] = second compound 0.316 µM, first compound 3.16 µM
[18] = second compound 0.316 µM, first compound 10 µM
[19] = second compound 1 µM, first compound 0.0316 µM
[20] = second compound 1 µM, first compound 0.1 µM
[21] = second compound 1 µM, first compound 0.316 µM
[22] = second compound 1 µM, first compound 1 µM
[23] = second compound 1 µM, first compound 3.16 µM
[24] = second compound 1 µM, first compound 10 µM
[25] = second compound 3.16 µM, first compound 0.0316 µM
[26] = second compound 3.16 µM, first compound 0.1 µM
[27] = second compound 3.16 µM, first compound 0.316 µM
[28] = second compound 3.16 µM, first compound 1 µM
[29] = second compound 3.16 µM, first compound 3.16 µM
[30] = second compound 3.16 µM, first compound 10 µM
[31] = second compound 10 µM, first compound 0.0316 µM
[32] = second compound 10 µM, first compound 0.1 µM
[33] = second compound 10 µM, first compound 0.316 µM
[34] = second compound 10 µM, first compound 1 µM
[35] = second compound 10 µM, first compound 3.16 µM
[36] = second compound 10 µM, first compound 10 µM
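Further: spheroids exposed to compounds for seven days before readout.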

## O=C(Nc1ccc(O)c(NS(=O)(=O)c2ccc(F)cc2)c1)c1ccc(-c2ccccc2)cc1 + Nc1ccc(C#CCN(C(=O)Cc2ncc(C(F)(F)F)cc2C(F)(F)F)c2ccc(F)cc2)nn1
Second compound 0.0316 µM
  IC50: > 10 µM
Second compound 0.1 µM
  IC50: > 10 µM
Second compound 0.316 µM
  IC50: > 10 µM
Second compound 1 µM
  IC50: > 10 µM
Second compound 3.16 µM
  IC50: > 10 µM
Second compound 10 µM
  IC50: > 10 µM
[1]
  viability, T/C: 93.4%
[2]
  viability, T/C: 119%
[3]
  viability, T/C: 108%
[4]
  viability, T/C: 88.1%
[5]
  viability, T/C: 105%
[6]
  viability, T/C: 77.5%
[7]
  viability, T/C: 95.5%
[8]
  viability, T/C: 105%
[9]
  viability, T/C: 94.5%
[10]
  viability, T/C: 103%
[11]
  viability, T/C: 117%
[12]
  viability, T/C: 63.8%
[13]
  viability, T/C: 91.3%
[14]
  viability, T/C: 114%
[15]
  viability, T/C: 102%
[16]
  viability, T/C: 99.2%
[17]
  viability, T/C: 106%
[18]
  viability, T/C: 77.4%
[19]
  viability, T/C: 92.8%
[20]
  viability, T/C: 92.8%
[21]
  viability, T/C: 95.5%
[22]
  viability, T/C: 95.2%
[23]
  viability, T/C: 112%
[24]
  viability, T/C: 73.6%
[25]
  viability, T/C: 93.6%
[26]
  viability, T/C: 94.2%
[27]
  viability, T/C: 91.3%
[28]
  viability, T/C: 96.3%
[29]
  viability, T/C: 93.7%
[30]
  viability, T/C: 62.2%
[31]
  viability, T/C: 92%
[32]
  viability, T/C: 90.1%
[33]
  viability, T/C: 89.2%
[34]
  viability, T/C: 88.7%
[35]
  viability, T/C: 95.1%
[36]
  viability, T/C: 51.5%

## CCc1c2c(nc3ccc(O)cc13)-c1cc3c(c(=O)n1C2)COC(=O)[C@]3(O)CC + Nc1ccc(C#CCN(C(=O)Cc2ncc(C(F)(F)F)cc2C(F)(F)F)c2ccc(F)cc2)nn1
Second compound 0.0316 µM
  IC50: 0.00728 µM
Second compound 0.1 µM
  IC50: 0.00682 µM
Second compound 0.316 µM
  IC50: 0.00742 µM
Second compound 1 µM
  IC50: 0.00743 µM
Second compound 3.16 µM
  IC50: 0.00579 µM
Second compound 10 µM
  IC50: 0.00631 µM
Second compound 0.0316 µM, first compound 0.00316 µM
  viability, T/C: 96.9%
Second compound 0.0316 µM, first compound 0.01 µM
  viability, T/C: 31.4%
[1]
  viability, T/C: 12.5%
[2]
  viability, T/C: 5.91%
[3]
  viability, T/C: 4.85%
[4]
  viability, T/C: 2.42%
Second compound 0.1 µM, first compound 0.00316 µM
  viability, T/C: 100%
Second compound 0.1 µM, first compound 0.01 µM
  viability, T/C: 24.3%
[7]
  viability, T/C: 10.2%
[8]
  viability, T/C: 7.32%
[9]
  viability, T/C: 4.65%
[10]
  viability, T/C: 2.23%
Second compound 0.316 µM, first compound 0.00316 µM
  viability, T/C: 96.2%
Second compound 0.316 µM, first compound 0.01 µM
  viability, T/C: 33.6%
[13]
  viability, T/C: 11.4%
[14]
  viability, T/C: 6.7%
[15]
  viability, T/C: 4.41%
[16]
  viability, T/C: 2.32%
Second compound 1 µM, first compound 0.00316 µM
  viability, T/C: 94.7%
Second compound 1 µM, first compound 0.01 µM
  viability, T/C: 34.5%
[19]
  viability, T/C: 8.52%
[20]
  viability, T/C: 7.09%
[21]
  viability, T/C: 4.98%
[22]
  viability, T/C: 3.55%
Second compound 3.16 µM, first compound 0.00316 µM
  viability, T/C: 71.9%
Second compound 3.16 µM, first compound 0.01 µM
  viability, T/C: 29.9%
[25]
  viability, T/C: 12.9%
[26]
  viability, T/C: 7.49%
[27]
  viability, T/C: 5.5%
[28]
  viability, T/C: 2.82%
Second compound 10 µM, first compound 0.00316 µM
  viability, T/C: 86.3%
Second compound 10 µM, first compound 0.01 µM
  viability, T/C: 24.2%
[31]
  viability, T/C: 14.3%
[32]
  viability, T/C: 8.16%
[33]
  viability, T/C: 5.98%
[34]
  viability, T/C: 2.43%

## C=CC(=O)N1CCN(c2nc(=O)n(-c3c(C)ccnc3C(C)C)c3nc(-c4c(O)cccc4F)c(F)cc23)C(C)C1 (stereo unspecified) + Cc1cccc(N(C)C(=O)C2C(O)CCN2c2nc(C)cc(C(F)(F)F)c2C#N)c1
Second compound 0.0316 µM
  IC50: > 10 µM
Second compound 0.1 µM
  IC50: > 10 µM
Second compound 0.316 µM
  IC50: > 10 µM
Second compound 1 µM
  IC50: > 10 µM
Second compound 3.16 µM
  IC50: > 10 µM
Second compound 10 µM
  IC50: > 10 µM
[1]
  viability, T/C: 98.9%
[2]
  viability, T/C: 112%
[3]
  viability, T/C: 103%
[4]
  viability, T/C: 107%
[5]
  viability, T/C: 121%
[6]
  viability, T/C: 114%
[7]
  viability, T/C: 107%
[8]
  viability, T/C: 105%
[9]
  viability, T/C: 108%
[10]
  viability, T/C: 114%
[11]
  viability, T/C: 121%
[12]
  viability, T/C: 111%
[13]
  viability, T/C: 107%
[14]
  viability, T/C: 89.5%
[15]
  viability, T/C: 99.7%
[16]
  viability, T/C: 106%
[17]
  viability, T/C: 128%
[18]
  viability, T/C: 121%
[19]
  viability, T/C: 96.4%
[20]
  viability, T/C: 108%
[21]
  viability, T/C: 109%
[22]
  viability, T/C: 107%
[23]
  viability, T/C: 133%
[24]
  viability, T/C: 107%
[25]
  viability, T/C: 104%
[26]
  viability, T/C: 96%
[27]
  viability, T/C: 113%
[28]
  viability, T/C: 105%
[29]
  viability, T/C: 118%
[30]
  viability, T/C: 117%
[31]
  viability, T/C: 102%
[32]
  viability, T/C: 108%
[33]
  viability, T/C: 107%
[34]
  viability, T/C: 109%
[35]
  viability, T/C: 123%
[36]
  viability, T/C: 114%
